Consider 19 compounds from patent US20240376085A1 (Janssen Pharmaceutica NV, priority 2021, published 2024).

The structures appear in SMILES notation. pIC50: −log10 of the molar value.

The target in one experiment is T1, IL-17A : IL-17RA binding (Homo sapiens, UniProt Q16552, K93Q).
T1 construct: Name: IL-17A-Flag
Briefly: IL-17A(FLAG-tagged):IL-17RA(His-tagged) binding disruption Eu-HTRF assay, Protocol 1. Particulars: FLAG-IL-17A 2.5 nM at 2x final concentration; average if tested more than once. The gist of the method: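 IC50 came from a one-site competition fit of the acceptor/donor (665/620 nm) HTRF ratio. His-tagged IL-17RA, Eu-anti-FLAG and D2-anti-His were added after a 1 h rt compound preincubation with FLAG-tagged IL-17A dimer in PBS/0.01% Triton X-100, followed by 2 h at rt before reading.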

Experiment [1] relates to IL-17A-induced G-CSF production in human normal keratinocyte (NHK). Briefly: NHK assay: IL-17A-induced G-CSF production in normal human keratinocytes. The experiment is classed as cell-based. Particulars: Homo sapiens, Keratinocyte, 24 h, IL-17A 5 ng/mL, average if tested more than once. The gist of the method:
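Compound titrations are first mixed with recombinant human IL-17A for 1 h at room temperature. The mixture goes onto adult normal human keratinocytes (final IL-17A 5 ng/mL, 5% FBS, 0.2% DMSO) for 24 h at 37 °C. Secreted G-CSF is then measured by HTRF and IC50 fitted.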

T1 sequence (Q16552 with tags, fused parts or gaps K93Q): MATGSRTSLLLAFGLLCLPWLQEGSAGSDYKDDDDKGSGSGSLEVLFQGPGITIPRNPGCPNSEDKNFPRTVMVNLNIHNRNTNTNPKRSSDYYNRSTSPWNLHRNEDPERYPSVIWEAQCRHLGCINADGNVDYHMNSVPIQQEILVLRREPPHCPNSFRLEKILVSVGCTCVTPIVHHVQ

On to `C[C@@H](NC(=O)CC(C(F)(F)F)C(F)(F)F)c1ccc2[nH]c([C@@H](NC(=O)c3ccnn3CC(F)(F)F)C3CCC(F)(F)CC3)nc2c1` [Example 129, N—((S)-(4,4-Difluorocyclohexyl)(5-((R)-1-(4,4,4-trifluoro-3-(trifluoromethyl)butanamido)ethyl)-1H-benzo[d]imidazol-2-yl)methyl)-1-(2,2,2-trifluoroethyl)-1H-pyrazole-5-carboxamide], for which the pIC50 at IL-17A : IL-17RA binding is below 7.00; in experiment [1] it was 7.00 to 7.30.

Regarding `C[C@@H](NC(=O)CCC(F)(F)F)c1ccc2[nH]c([C@@H](NC(=O)c3ncn(CCC(F)(F)F)n3)C3CCC(F)(F)CC3)nc2c1` [Example 228, N—((S)-(4,4-Difluorocyclohexyl)(5-((R)-1-(4,4,4-trifluorobutanamido)ethyl)-1H-benzo[d]imidazol-2-yl)methyl)-1-(3,3,3-trifluoropropyl)-1H-1,2,4-triazole-3-carboxamide], the pIC50 (at IL-17A : IL-17RA binding; in experiment [1]) was below 7.00 throughout.

As for `C[C@@H](NC(=O)CCC(F)(F)F)c1ccc2[nH]c([C@@H](NC(=O)c3ccnn3C)C3CCC(F)(F)CC3)nc2c1` [Example 118, N—((S)-(4,4-Difluorocyclohexyl)(5-((R)-1-(4,4,4-trifluorobutanamido)ethyl)-1H-benzo[d]imidazol-2-yl)methyl)-1-methyl-1H-pyrazole-5-carboxamide], the negative logarithm of the IC50 (pIC50) is below 7.00 at IL-17A : IL-17RA binding and 7.00 to 7.30 in experiment [1].

With `C[C@@H](NC(=O)CCC(F)(F)F)c1ccc2[nH]c([C@@H](NC(=O)c3cnn(CCCC(F)(F)F)n3)C3CCC(F)(F)CC3)nc2c1` [Example 19, N—[(S)-(4,4-Difluorocyclohexyl)-[6-[(1R)-1-(4,4,4-trifluorobutanoylamino)ethyl]-1H-benzimidazol-2-yl]methyl]-2-(4,4,4-trifluorobutyl)triazole-4-carboxamide], the negative logarithm of the IC50 (pIC50) at IL-17A : IL-17RA binding is below 7.00; in experiment [1], 7.00 to 7.30.

`C[C@@H](NC(=O)CCC(F)(F)F)c1ccc2[nH]c([C@@H](NC(=O)c3cc(O)n(CCC(F)(F)F)n3)C3CCC(F)(F)CC3)nc2c1` [Example 93, N—((S)-(4,4-Difluorocyclohexyl)(5-((R)-1-(4,4,4-trifluorobutanamido)ethyl)-1H-benzo[d]imidazol-2-yl)methyl)-5-hydroxy-1-(3,3,3-trifluoropropyl)-1H-pyrazole-3-carboxamide]: the negative logarithm of the IC50 (pIC50) (at IL-17A : IL-17RA binding; in experiment [1]) was below 7.00 throughout.

Turning to `C[C@@H](NC(=O)CCC(F)(F)F)c1ccc2[nH]c([C@@H](NC(=O)c3cnnn3CC3CCC3(F)F)C3CCC(F)(F)CC3)nc2c1` (stereo partly drawn) [Example 86, 1-((2,2-Difluorocyclobutyl)methyl)-N—((S)-(4,4-difluorocyclohexyl)(5-((R)-1-(4,4,4-trifluorobutanamido)ethyl)-1H-benzo[d]imidazol-2-yl)methyl)-1H-1,2,3-triazole-5-carboxamide], the negative logarithm of the IC50 (pIC50) (at IL-17A : IL-17RA binding; in experiment [1]) was below 7.00 throughout.

Regarding `C[C@@H](NC(=O)CCC(F)(F)F)c1ccc2nc([C@@H](NC(=O)c3cnn(CCC(F)F)n3)C3CCC(F)(F)CC3)[nH]c2c1` [Example 73, N—((S)-(4,4-Difluorocyclohexyl)(6-((R)-1-(4,4,4-trifluorobutanamido)ethyl)-1H-benzo[d]imidazol-2-yl)methyl)-2-(3,3-difluoropropyl)-2H-1,2,3-triazole-4-carboxamide], the negative-log IC50 (pIC50) (on IL-17A : IL-17RA binding; in experiment [1]) was below 7.00 throughout.

In the case of `CC(C)n1nccc1C(=O)N[C@@H](COC(C)C(F)(F)F)c1nc2ccc([C@H](NC(=O)CC3CC(F)(F)C3)C3CC3)cc2[nH]1` (relative stereo) [Example 156, N—((R*)-1-(6-((R)-Cyclopropyl(2-(3,3-difluorocyclobutyl)acetamido)methyl)-1H-benzo[d]imidazol-2-yl)-2-(((R)-1,1,1-trifluoropropan-2-yl)oxy)ethyl)-1-isopropyl-1H-pyrazole-5-carboxamide], the pIC50 (on IL-17A : IL-17RA binding; in experiment [1]) was 7.00 to 7.30 in each case.

For the compound `CC(C)n1nccc1C(=O)N[C@@H](C[C@H]1CCC(F)(F)C1)c1nc2ccc([C@H](NC(=O)CC3CC(F)(F)C3)C3CC3)cc2[nH]1` [Example 236, N—((S)-1-(6-((R)-Cyclopropyl(2-(3,3-difluorocyclobutyl)acetamido)methyl)-1H-benzo[d]imidazol-2-yl)-2-((R)-3,3-difluorocyclopentyl)ethyl)-1-isopropyl-1H-pyrazole-5-carboxamide], the negative logarithm of the IC50 (pIC50) (at IL-17A : IL-17RA binding; in experiment [1]) was below 7.00 throughout.

Take `CC(C)n1nccc1C(=O)N[C@@H](CC(C)(C)C(F)(F)F)c1nc2ccc([C@H](NC(=O)CC3CC(F)(F)C3)C3CC3)cc2[nH]1` [Example 177, N—((S)-1-(6-((R)-Cyclopropyl(2-(3,3-difluorocyclobutyl)acetamido)methyl)-1H-benzo[d]imidazol-2-yl)-4,4,4-trifluoro-3,3-dimethylbutyl)-1-isopropyl-1H-pyrazole-5-carboxamide]: the negative logarithm of the IC50 (pIC50) at IL-17A : IL-17RA binding is below 7.00; in experiment [1], above 7.30.

With `C[C@@H](NC(=O)CCC(F)(F)F)c1ccc2[nH]c([C@@H](NC(=O)[C@H]3C[C@@H]3C#N)C3CCC(F)(F)CC3)nc2c1` (relative stereo) [Example 103, trans-(1S*,2S*)-2-Cyano-N—((S)-(4,4-difluorocyclohexyl)(5-((R)-1-(4,4,4-trifluorobutanamido)ethyl)-1H-benzo[d]imidazol-2-yl)methyl)cyclopropane-1-carboxamide], the negative logarithm of the IC50 (pIC50) (at IL-17A : IL-17RA binding; in experiment [1]) was below 7.00 throughout.

As for `CC(C)c1oncc1C(=O)N[C@H](c1nc2cc([C@@H](C)NC(=O)CCC(F)(F)F)ccc2[nH]1)C1CCC(F)(F)CC1` [Example 202, N—((S)-(4,4-Difluorocyclohexyl)(5-((R)-1-(4,4,4-trifluorobutanamido)ethyl)-1H-benzo[d]imidazol-2-yl)methyl)-5-isopropylisoxazole-4-carboxamide], the pIC50 (at IL-17A : IL-17RA binding; in experiment [1]) was above 7.30 each time.

Turning to `CC(C)n1nccc1C(=O)N[C@@H](CC(C)(C)C(F)F)c1nc2ccc([C@H](NC(=O)CC3CC(F)(F)C3)C3CC3)cc2[nH]1` [Example 234, N—((S)-1-(6-((R)-Cyclopropyl(2-(3,3-difluorocyclobutyl)acetamido)methyl)-1H-benzo[d]imidazol-2-yl)-4,4-difluoro-3,3-dimethylbutyl)-1-isopropyl-1H-pyrazole-5-carboxamide], the pIC50 (at IL-17A : IL-17RA binding; in experiment [1]) was 7.00 to 7.30 each time.

On to `C[C@@H](NC(=O)CCC(F)(F)F)c1ccc2[nH]c([C@@H](NC(=O)c3cn(CCC(F)(F)F)cn3)C3CCC(F)(F)CC3)nc2c1` [Example 226, N—((S)-(4,4-Difluorocyclohexyl)(5-((R)-1-(4,4,4-trifluorobutanamido)ethyl)-1H-benzo[d]imidazol-2-yl)methyl)-1-(3,3,3-trifluoropropyl)-1H-imidazole-4-carboxamide], for which the negative logarithm of the IC50 (pIC50) (at IL-17A : IL-17RA binding; in experiment [1]) was below 7.00 in each case.

With `CC(C)(OCC(NC(=O)c1nonc1C1CC1)c1nc2ccc([C@H](NC(=O)CC3CC(F)(F)C3)C3CC3)cc2[nH]1)C(F)(F)F` (single isomer, unassigned) [Example 163, 4-Cyclopropyl-N—((S*)-1-(6-((R)-cyclopropyl(2-(3,3-difluorocyclobutyl)acetamido)methyl)-1H-benzo[d]imidazol-2-yl)-2-((1,1,1-trifluoro-2-methylpropan-2-yl)oxy)ethyl)-1,2,5-oxadiazole-3-carboxamide], the pIC50 (at IL-17A : IL-17RA binding; in experiment [1]) was below 7.00 in each case.

For the compound `Cc1nonc1C(=O)N[C@H](c1nc2ccc([C@H](NC(=O)CC3CC(F)(F)C3)C3CC3)cc2[nH]1)[C@H]1CCCC(F)(F)C1` [Example 247, N—((S)-(6-((R)-Cyclopropyl(2-(3,3-difluorocyclobutyl)acetamido)methyl)-1H-benzo[d]imidazol-2-yl)((S)-3,3-difluorocyclohexyl)methyl)-4-methyl-1,2,5-oxadiazole-3-carboxamide], the negative logarithm of the IC50 (pIC50) (on IL-17A : IL-17RA binding; in experiment [1]) was above 7.30 each time.

As to `CC(C)n1nccc1C(=O)N[C@@H](CO[C@@H](C)C(F)(F)F)c1nc2ccc([C@H](NC(=O)CC3CC(F)(F)C3)C3CC3)cc2[nH]1` (relative stereo) [Example 158, N—((R*)-1-(6-((R)-Cyclopropyl(2-(3,3-difluorocyclobutyl)acetamido)methyl)-1H-benzo[d]imidazol-2-yl)-2-(((S)-1,1,1-trifluoropropan-2-yl)oxy)ethyl)-1-isopropyl-1H-pyrazole-5-carboxamide], the values for the negative logarithm of the IC50 (pIC50) (on IL-17A : IL-17RA binding; in experiment [1]) were above 7.30 and below 7.00, respectively.

Turning to `C[C@@H](NC(=O)CCC(F)(F)F)c1ccc2[nH]c([C@@H](NC(=O)c3nc(CCC(F)(F)F)cs3)C3CCC(F)(F)CC3)nc2c1` [Example 201, N—((S)-(4,4-Difluorocyclohexyl)(5-((R)-1-(4,4,4-trifluorobutanamido)ethyl)-1H-benzo[d]imidazol-2-yl)methyl)-4-(3,3,3-trifluoropropyl) thiazole-2-carboxamide], the negative logarithm of the IC50 (pIC50) (on IL-17A : IL-17RA binding; in experiment [1]) was below 7.00 throughout.

For `Cc1nonc1C(=O)NC(CC(C)(C)C(F)(F)F)c1nc2cc([C@@H](C)NC(=O)CCC(F)(F)F)ccc2[nH]1` (single isomer, unassigned) [Example 198, 4-Methyl-N—((S*)-4,4,4-trifluoro-3,3-dimethyl-1-(5-((R)-1-(4,4,4-trifluorobutanamido)ethyl)-1H-benzo[d]imidazol-2-yl)butyl)-1,2,5-oxadiazole-3-carboxamide], the pIC50 is 7.00 to 7.30 at IL-17A : IL-17RA binding and below 7.00 in experiment [1].
